Converted amounts (≈) assume the structure as drawn. Read-outs that look alike come from different tables or passages of the source.
How the values were obtained:
human CB2R = target: T1, human CB2R (Homo sapiens, UniProt P34972); experiment: CB2R mediated modulation of cAMP synthesis; format: cell-based
T1 construct: host or cells: CHO cells
Description: Compounds of the invention are evaluated for their CB2 agonist or inverse agonistic activity in accordance with the following experimental method.
(§1) CHO cells expressing human CB2R (Euroscreen) are plated at a density of 5000 cells per well in 384 well plates and incubated overnight at 37° C. After removing the media, the cells are treated with test compounds diluted in stimulation buffer containing 1 mM IBMX, 0.25% BSA and 10 uM Forskolin. The assay is incubated for 30 minutes at 37° C. Cells are lysed and the cAMP concentration is measured using DiscoverX—XS cAMP kit, following the manufacturer's protocol. In this setting, agonists will decrease forskolin induced production of cAMP while inverse agonists will further increase forskolin induced production of cAMP. EC50 of agonists are calculated as follows. The maximal amount of cAMP produced by forskolin compared to the level of cAMP inhibited by 1 uM CP55940 is defined as 100%. The EC50 value of each test compound is determined as the concentration at which 50% of the forskolin-stimulated cAMP synthesis is inhibited. Data is analyzed using a four-parameter logistic model. (Model 205 of XLfit 4.0).

human CB1R = target: T2, human CB1R (Homo sapiens, UniProt P21554); experiment: CB1R mediated modulation of cAMP synthesis; format: cell-based; conditions: CHO cells expressing human CB1R, forskolin-stimulated cAMP
T2 construct: host or cells: CHO cells
Description: Compounds of the invention are evaluated for their CB1 agonist or inverse agonistic activity in accordance with the following experimental method.
as §1, with “CB1R” for “CB2R”

[1] = Human microsomal stability assay; format: in vitro ADME; conditions: human liver microsomes 1 mg protein/ml, 1 uM compound, pH 7.4
Description: The double time point high throughput screen for human liver microsomal metabolic stability is used to measure the in vitro metabolism of test compounds by human liver microsomal enzymes. The data collected are analyzed to calculate a half-life (t½, min) and clearance (expressed as percent hepatic blood flow, % QH) for test compounds. The assay is performed in 50 mM potassium phosphate buffer, pH 7.4 and 2.5 mM NADPH. Test samples are dissolved in DMSO and acetonitrile for a final assay concentration of 1 uM. Human liver microsomes are diluted in assay buffer to a final assay concentration of 1 mg protein/ml. Compound solution and microsome suspension are added to assay buffer for a final incubation volume of 350 ul. The preparation is incubated for 5 min in a 37° C. water bath. The reaction is started by the addition of NADPH. Volumes of 80 ul are removed from the incubation mix at 0, 5, and 30 min after the start of the reaction and added to 160 ul acetonitrile. The supernatant is transferred to 0.25 mm glass fiber filter plates and centrifuged for 5 min at 3000 rpm. Injection volumes of 10 ul are typically added to HPLC columns with formic acid in water or acetonitrile at a flow rate of 0.3 ml/min. Percent loss of parent compound is calculated from the area under each time point to determine the half-life and clearance. Preferred compounds of the invention will have a human liver microsomal stability of <25% QH.

[2] = Aqueous (equilibrium) solubility assay; format: physicochemical; conditions: aqueous buffer, thermodynamic from solid, 48 hrs equilibrium
Description: The equilibrium solubility of compounds is determined in pH 2, 4.5, 6.8 buffers. Prior to solubility measurement, the crystalline/amorphous characteristics of the sample are determined by observing the powder form under polarized light microscope. Solubility is only measured when compound is crystalline.
Approximately 2 mg of compound are weighed out into a vial and 1-2 ml of buffer are added into the vial (pHs 2 & 4.5, use 1 ml and for pHs 6.8 and 7.4 use 2 ml of buffer). The vial is rotated for 48 hrs protected from light. After 48 hrs, the sample is transferred into an eppendorf tube and centrifuged for 10 minutes at 14,000 RPM, if the supernatant is not clear, it is filtered (PVDF filter). The clear supernatant is diluted if necessary, before analyzing via HPLC. The final pH of the supernatant or the filtrate is measured and reported. The external calibration curve is used to determine the solubility value. The percentage of extraneous peaks relative to the parent peak is monitored in the standard solution as well as the solubility sample. Preferred compounds of the invention will have a solubility of >100 μg/ml.

[3] = system: Salmonella bacterial strains TA98 and TA100; experiment: Ames mutagenicity assay: bacteria reverse mutation screening assay; format: cell-based; conditions: TA98 and TA100, presence or absence of S9
Description: The Ames ^(1) Salmonella bacterial strains used in the abbreviated screening assay ^(2) are TA98 and TA100. Actively growing (log phase) bacteria are incubated with test compound and trace amounts of histidine in the presence or absence of S9 for 48 hours on minimal agar plates. Test compound is dissolved in DMSO to a final concentration of 100 mg/ml. The stock is serially diluted to yield concentrations of 100, 50, 25 12.5 and 6.3 mg/ml. Fifty microliters of dosing solution is combined with top agar and buffer (or S9 mix) and poured on duplicate plates to yield effective doses of 5000, 2500, 1250, 625 and 313 μg/plate. Positive and negative controls plates are included. Formation of colonies after 48 hr incubation at 37° C. is an indication of genetic reversion, either arising spontaneously or caused by the test compound. The average number of spontaneous colonies growing on control plates is compared to the number of colonies on test plates. A fold increase of 2-3× over background is generally considered a positive response for mutagenicity. • 1. Maron, D. M. and Ames, B. N. (1983). “Revised Methods for the Salmonella Mutagenicity Test”. Mutat. Res. 113, 173-215. • 2. D. A. Burke, D. J. Wedd, and B. Burlinson (1996). “Use of the Miniscreen assay to screen novel compounds for bacterial mutagenicity in the pharmaceutical industry”. Mutagenesis 11: 201-205.

[4] = pH 4.5 buffer, read-out: solubility at pH 4.5
[5] = Table XI, CHO cells expressing human CB2R, forskolin-stimulated cAMP, read-out: CB2 CAMP EC50
[6] = Table XI, read-out: CB1 CAMP EC50
[7] = pH 6.8 buffer, read-out: solubility at pH 6.8

T1 sequence (P34972 whole entry): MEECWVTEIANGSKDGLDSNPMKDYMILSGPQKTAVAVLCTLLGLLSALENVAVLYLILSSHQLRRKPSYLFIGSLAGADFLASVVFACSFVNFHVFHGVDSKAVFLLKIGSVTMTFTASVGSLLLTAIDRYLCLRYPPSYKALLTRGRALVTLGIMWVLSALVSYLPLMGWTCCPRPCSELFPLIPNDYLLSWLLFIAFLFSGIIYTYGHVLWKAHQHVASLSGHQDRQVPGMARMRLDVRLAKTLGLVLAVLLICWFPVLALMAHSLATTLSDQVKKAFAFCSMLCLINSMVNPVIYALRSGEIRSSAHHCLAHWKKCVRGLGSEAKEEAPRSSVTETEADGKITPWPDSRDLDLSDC
T2 sequence (P21554 whole entry): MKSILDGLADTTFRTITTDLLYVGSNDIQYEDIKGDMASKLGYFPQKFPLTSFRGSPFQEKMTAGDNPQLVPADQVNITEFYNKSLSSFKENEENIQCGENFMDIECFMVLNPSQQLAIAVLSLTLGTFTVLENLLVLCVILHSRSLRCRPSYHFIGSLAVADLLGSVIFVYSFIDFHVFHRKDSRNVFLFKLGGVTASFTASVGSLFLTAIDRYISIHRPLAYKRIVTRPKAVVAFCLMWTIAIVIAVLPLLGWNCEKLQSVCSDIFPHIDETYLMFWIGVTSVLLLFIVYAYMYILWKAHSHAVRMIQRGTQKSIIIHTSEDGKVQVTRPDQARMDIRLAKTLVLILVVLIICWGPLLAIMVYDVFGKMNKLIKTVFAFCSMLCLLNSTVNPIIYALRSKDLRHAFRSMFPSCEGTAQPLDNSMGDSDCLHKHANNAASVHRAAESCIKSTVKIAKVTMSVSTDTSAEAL

Row | Structure (SMILES) | EC50 (human CB2R) | EC50 (human CB1R; CB1 EC50, Table II) | EC50 (human CB1R; CB1 CAMP EC50, Table XI) | HLM clearance (percent hepatic blood flow) [1] | solubility at 48 h [2, 4] | Ames [3] | EC50 (human CB2R; [5]) | EC50 (human CB1R; [6]) | solubility at 48 h [2, 7]
1 | CO[C@H]1CC[C@@H](S(=O)(=O)C(C)(C)C(=O)Nc2nnn(C(C)(C)C)n2)CC1 | 56 nM | > 50000 nM | – | – | – | – | – | – | –
2 | CC(C)(C)n1nnc(NC(=O)C(C)(C)S(=O)(=O)[C@H]2CC[C@@H](O)CC2)n1 | 8.7 nM | > 50000 nM | – | – | – | – | – | – | –
3 | CC(C)(C)n1nnc(NC(=O)C(C)(C)S(=O)(=O)CC[C@@H]2CCOC2)n1 | 12 nM | ~50000 nM | – | – | – | – | – | – | –
4 | CCC(C)S(=O)(=O)C(C)(C)C(=O)Nc1cc(C(C)(C)C)on1 (stereo not shown) [Example 42 WO08039645] | 19 nM | – | > 20000 nM | 68 QH % | 20 µg/mL (≈ 60.5 µM) | negative | – | – | –
5 | CCC(C)S(=O)(=O)C(C)(C)C(=O)Nc1cc(C(C)(C)C)nn1C (stereo not shown) [Example 43 WO08039645] | – | – | – | 61 QH % | 1260 µg/mL (≈ 3680 µM) | positive | 642 nM | > 20000 nM | 1160 µg/mL (≈ 3370 µM)
6 | CCC(C)S(=O)(=O)C(C)(C)C(=O)Nc1nc(C(C)(C)C)cs1 (stereo not shown) [Example 44 WO08039645] | 14 nM | – | 10700 nM | 67 QH % | 13 µg/mL (≈ 37.5 µM) | negative | – | – | –
7 | CC(C)(C)c1cc(NC(=O)C(C)(C)S(=O)(=O)CC2CCOCC2)no1 [Example 56 WO08039645] | 4.5 nM | – | > 20000 nM | 47 QH % | 47 µg/mL (≈ 126 µM) | negative | – | – | 44 µg/mL (≈ 118 µM)
8 | CC(C)(C)c1csc(NC(=O)C(C)(C)S(=O)(=O)CC2CCOCC2)n1 [Example 57 WO08039645] | 23 nM | – | 2400 nM | 87 QH % | 383 µg/mL (≈ 986 µM) | negative | – | – | 406 µg/mL (≈ 1040 µM)
9 | Cn1nc(C(C)(C)C)cc1NC(=O)C(C)(C)S(=O)(=O)CC1CCOCC1 [Example 59 WO08039645] | – | – | – | <30.10 QH % | 396 µg/mL (≈ 1030 µM) | positive | 140 nM | > 20000 nM | 452 µg/mL (≈ 1170 µM)
10 | CC(C)(C)c1cc(NC(=O)C(C)(C)S(=O)(=O)C2CCOCC2)no1 [Example 66 WO08039645] | 0.72 nM | – | > 50000 nM | 57 QH % | 56 µg/mL (≈ 156 µM) | negative | – | – | 53 µg/mL (≈ 148 µM)
11 | CC(C)(C)c1csc(NC(=O)C(C)(C)S(=O)(=O)C2CCOCC2)n1 [Example 67 WO08039645] | 12 nM | – | 11400 nM | 79 QH % | 15 µg/mL (≈ 40.1 µM) | negative | – | – | 16 µg/mL (≈ 42.7 µM)
12 | Cn1nc(C(C)(C)C)cc1NC(=O)C(C)(C)S(=O)(=O)C1CCOCC1 [Example 69 WO08039645] | – | – | – | <30.10 QH % | 1040 µg/mL (≈ 2810 µM) | positive | 216 nM | > 20000 nM | 1230 µg/mL (≈ 3320 µM)
13 | CC(C)(C)c1cc(NC(=O)C(C)(C)S(=O)(=O)c2ccc(F)cc2)no1 [Example 130 WO08014199] | 2.4 nM | – | 2240 nM | 68 QH % | 5.2 µg/mL (≈ 14.1 µM) | negative | – | – | 4.7 µg/mL (≈ 12.8 µM)
14 | CC(C)(C)c1cc(NC(=O)C(C)(C)S(=O)(=O)c2ccc(F)cc2)on1 [Example 248 WO08014199] | 0.98 nM | – | 3290 nM | 32 QH % | 1.68 µg/mL (≈ 4.56 µM) | negative | – | – | 1.25 µg/mL (≈ 3.39 µM)
15 | Cn1nc(C(C)(C)C)cc1NC(=O)C(C)(C)S(=O)(=O)c1ccc(F)cc1 [Example 251 WO08014199] | 2.57 nM | – | 10900 nM | 30 QH % | 137 µg/mL (≈ 359 µM) | positive | – | – | 148 µg/mL (≈ 388 µM)
